From ChEMBL document CHEMBL1201862, “PubChem BioAssay data set” (2004)
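Interpolation was linear, between the two tested concentrations surrounding the appropriate level; five concentrations were tested over 48 hours in 96-well plates. At the GI50, growth is halved.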 The source made the active and inactive calls. No stated cut-off is given here; in the data, active = GI50 up to about 1.1 µM and inactive = higher.

How the values were obtained:
Experiment in all cases: inhibition of tumour cell growth, NCI panel, 48 h
DU-145 = test system: DU-145
Malme-3M = test system: Malme-3M
MDA-MB-231 = test system: MDA-MB-231
SN12C = test system: SN12C
PC-3 = test system: PC-3
CAKI-1 = test system: CAKI-1
SK-OV-3 = test system: SK-OV-3
HCC 2998 = test system: HCC 2998
HL-60 = test system: HL-60
HOP-92 = test system: HOP-92
CCRF-CEM = test system: CCRF-CEM
NCI-H460 = test system: NCI-H460
SW-620 = test system: SW-620
SNB-19 = test system: SNB-19
NCI/ADR-RES = test system: NCI/ADR-RES
A549 = test system: A549
Hs-578T = test system: Hs-578T
OVCAR-5 = test system: OVCAR-5
UACC-62 = test system: UACC-62

Structure (SMILES) | GI50 (DU-145) | GI50 (Malme-3M) | GI50 (MDA-MB-231) | GI50 (SN12C) | GI50 (PC-3) | GI50 (CAKI-1) | GI50 (SK-OV-3) | GI50 (HCC 2998) | GI50 (HL-60) | GI50 (HOP-92) | GI50 (CCRF-CEM) | GI50 (NCI-H460) | GI50 (SW-620) | GI50 (SNB-19) | GI50 (NCI/ADR-RES) | GI50 (A549) | GI50 (Hs-578T) | GI50 (OVCAR-5) | GI50 (UACC-62)
O=C(Nc1ccccc1)O/N=C(/CBr)c1ccccc1 | 19.3 µM (inactive) | 13 µM (inactive) | 12.2 µM (inactive) | 8.22 µM (inactive) | 12.6 µM (inactive) | 14.8 µM (inactive) | 29.2 µM (inactive) | 18.5 µM (inactive) | 4.66 µM (inactive) | 16.1 µM (inactive) | 3.52 µM (inactive) | 19 µM (inactive) | 5.35 µM (inactive) | 20.6 µM (inactive) | 17.9 µM (inactive) | 34 µM (inactive) | 26.2 µM (inactive) | 18.1 µM (inactive) | 12.3 µM (inactive)
Oc1ccc2ccccc2c1CN(Cc1c(O)ccc2ccccc12)C1CCCCC1 | 20.3 µM (inactive) | 15.8 µM (inactive) | 18.5 µM (inactive) | 14.4 µM (inactive) | 17 µM (inactive) | 16.6 µM (inactive) | 42 µM (inactive) | 14.6 µM (inactive) | – | 18 µM (inactive) | 27.3 µM (inactive) | 20 µM (inactive) | 20.1 µM (inactive) | 28.2 µM (inactive) | 23.5 µM (inactive) | 19.4 µM (inactive) | 26.4 µM (inactive) | 41.9 µM (inactive) | 16.8 µM (inactive)
O=c1[nH]nc(Cc2ccccc2)n1/N=C/c1ccncc1 | > 100 µM (inactive) | > 100 µM (inactive) | > 100 µM (inactive) | > 100 µM (inactive) | > 100 µM (inactive) | 42.2 µM (inactive) | – | > 100 µM (inactive) | > 100 µM (inactive) | > 100 µM (inactive) | > 100 µM (inactive) | > 100 µM (inactive) | > 100 µM (inactive) | > 100 µM (inactive) | > 100 µM (inactive) | > 100 µM (inactive) | 82.2 µM (inactive) | > 100 µM (inactive) | –
CN1CCN(c2cc3nc4cc(O)cc(O)c4c(O)c3cc2N)CC1 | 46.5 µM (inactive) | 24.6 µM (inactive) | 1.53 µM (inactive) | 1.5 µM (inactive) | 18.1 µM (inactive) | 23.3 µM (inactive) | – | 16.2 µM (inactive) | 20.1 µM (inactive) | 10.6 µM (inactive) | 13.4 µM (inactive) | 36.3 µM (inactive) | 21.9 µM (inactive) | 37.1 µM (inactive) | 57.5 µM (inactive) | 61 µM (inactive) | 29.7 µM (inactive) | 23.9 µM (inactive) | 1.57 µM (inactive)
Cc1ccc(S(=O)(=O)N[C@@H](Cc2ccccc2)C(=O)CCl)cc1 [TPCK] | 17.7 µM (inactive) | 14.6 µM (inactive) | 14.2 µM (inactive) | 12.7 µM (inactive) | 15.4 µM (inactive) | – | 24.2 µM (inactive) | 13.9 µM (inactive) | 4.66 µM (inactive) | 13.6 µM (inactive) | 3.7 µM (inactive) | 15.5 µM (inactive) | 11.5 µM (inactive) | 16.9 µM (inactive) | 19.9 µM (inactive) | 15.7 µM (inactive) | 1.82 µM (inactive) | 16.6 µM (inactive) | 13.6 µM (inactive)
CN(C)CCNC(=O)c1cccc2nc3cccc(F)c3nc12 | 2.47 µM (inactive) | 2.04 µM (inactive) | 1.32 µM (inactive) | 1.02 µM (active) | 1.38 µM (inactive) | 0.973 µM (active) | – | 1.49 µM (inactive) | 1.48 µM (inactive) | 1.22 µM (inactive) | 1.11 µM (active) | 0.579 µM (active) | 0.65 µM (active) | 2.21 µM (inactive) | 1.39 µM (inactive) | 0.53 µM (active) | 1.41 µM (inactive) | 2.6 µM (inactive) | 2.88 µM (inactive)
CNc1ccc(C)cc1S(=O)(=O)c1ccccc1[N+](=O)[O-] | > 100 µM (inactive) | 60.3 µM (inactive) | > 100 µM (inactive) | 86.7 µM (inactive) | 28.1 µM (inactive) | – | 91 µM (inactive) | 92.5 µM (inactive) | > 10 µM (inactive) | – | 21.4 µM (inactive) | 51.1 µM (inactive) | 69.8 µM (inactive) | 78 µM (inactive) | 42.3 µM (inactive) | 41.3 µM (inactive) | 55.7 µM (inactive) | > 100 µM (inactive) | 22.1 µM (inactive)
C=C1CCCCCCCCCCC12SCCC2CCCCSC (centres undefined) | 40.6 µM (inactive) | 19.7 µM (inactive) | 19.9 µM (inactive) | 24.3 µM (inactive) | 22.6 µM (inactive) | – | 47.3 µM (inactive) | 21.4 µM (inactive) | 26.5 µM (inactive) | 28.1 µM (inactive) | – | 34.5 µM (inactive) | 20.3 µM (inactive) | 21.8 µM (inactive) | 20.8 µM (inactive) | 34.3 µM (inactive) | 39.4 µM (inactive) | 20 µM (inactive) | 27.1 µM (inactive)
COc1cc2cc(C(=O)N3CC(CCl)c4ccc([N+](=O)[O-])cc43)[nH]c2c(OC)c1OC (centres undefined) | > 100 µM (inactive) | > 100 µM (inactive) | > 100 µM (inactive) | > 100 µM (inactive) | > 100 µM (inactive) | > 100 µM (inactive) | – | > 100 µM (inactive) | > 100 µM (inactive) | > 100 µM (inactive) | > 100 µM (inactive) | – | > 100 µM (inactive) | > 100 µM (inactive) | > 100 µM (inactive) | > 100 µM (inactive) | 74.5 µM (inactive) | > 100 µM (inactive) | > 100 µM (inactive)
Cn1c(=O)c2c(nc3sc4ncccc4c(=O)n32)n(C)c1=O | > 100 µM (inactive) | – | > 100 µM (inactive) | > 100 µM (inactive) | > 100 µM (inactive) | > 100 µM (inactive) | > 100 µM (inactive) | > 100 µM (inactive) | > 100 µM (inactive) | > 100 µM (inactive) | > 100 µM (inactive) | > 100 µM (inactive) | > 100 µM (inactive) | > 100 µM (inactive) | > 100 µM (inactive) | – | > 100 µM (inactive) | > 100 µM (inactive) | > 100 µM (inactive)
COC(=O)C12CCC(C(=O)OC)(Cc3c(c4ccccc4n3S(=O)(=O)c3ccccc3)C1)C2=O (centres undefined) | > 100 µM (inactive) | 36.1 µM (inactive) | > 100 µM (inactive) | > 100 µM (inactive) | > 63.5 µM (inactive) | > 62.4 µM (inactive) | > 70.8 µM (inactive) | > 76.9 µM (inactive) | – | 1 µM (active) | 1 µM (active) | > 67 µM (inactive) | > 100 µM (inactive) | > 56.4 µM (inactive) | 16.7 µM (inactive) | > 46 µM (inactive) | > 46.6 µM (inactive) | > 32.2 µM (inactive) | > 40.5 µM (inactive)
CS(=O)(=O)Nc1ccc2c(c1)oc(=O)c1ccccc12 | > 100 µM (inactive) | > 100 µM (inactive) | > 100 µM (inactive) | > 100 µM (inactive) | > 100 µM (inactive) | > 100 µM (inactive) | – | > 100 µM (inactive) | > 100 µM (inactive) | > 100 µM (inactive) | > 100 µM (inactive) | > 100 µM (inactive) | > 100 µM (inactive) | > 100 µM (inactive) | > 100 µM (inactive) | > 100 µM (inactive) | > 100 µM (inactive) | > 100 µM (inactive) | 65 µM (inactive)
CC[C@@]1(C[C@H]2C[C@@]3(C(=O)OC)c4[nH]c5ccccc5c4CCN3C2=O)COC2(CCCCC2)O1 | 41.8 µM (inactive) | 55.3 µM (inactive) | > 100 µM (inactive) | 45.7 µM (inactive) | 15 µM (inactive) | 36.2 µM (inactive) | 69.5 µM (inactive) | 21.2 µM (inactive) | 18.9 µM (inactive) | – | – | 24.3 µM (inactive) | – | 12.5 µM (inactive) | 31.8 µM (inactive) | 24.5 µM (inactive) | 18.9 µM (inactive) | 55.8 µM (inactive) | 23.5 µM (inactive)
Cn1c(-c2ccccc2)cc(-c2ccsc2)c1-c1ccsc1 | > 100 µM (inactive) | – | > 100 µM (inactive) | > 100 µM (inactive) | > 100 µM (inactive) | > 100 µM (inactive) | 95.7 µM (inactive) | > 100 µM (inactive) | 53.2 µM (inactive) | > 100 µM (inactive) | 50 µM (inactive) | > 100 µM (inactive) | > 100 µM (inactive) | 17.2 µM (inactive) | > 100 µM (inactive) | > 100 µM (inactive) | > 100 µM (inactive) | > 100 µM (inactive) | > 100 µM (inactive)
O=C(NCCCCCCCCNC(=O)Nc1cccc2ccccc12)Nc1cccc2ccccc12 | > 100 µM (inactive) | > 100 µM (inactive) | 7.69 µM (inactive) | 18.4 µM (inactive) | 72.1 µM (inactive) | 40.9 µM (inactive) | – | 30.1 µM (inactive) | 33.4 µM (inactive) | 6.92 µM (inactive) | 12.9 µM (inactive) | 3.5 µM (inactive) | 9.66 µM (inactive) | 32.2 µM (inactive) | 46.7 µM (inactive) | 35.1 µM (inactive) | 14.2 µM (inactive) | 41.7 µM (inactive) | 32.9 µM (inactive)
